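A five-concentration, 48-hour dose response in 96-well plates underlies each endpoint, interpolated linearly between surrounding concentrations. TGI: concentration producing complete growth inhibition.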

Some test systems named below: UO-31 renal; OVCAR-8 ovarian; SF-268 CNS; RXF 393 renal; SNB-75 CNS; CCRF-CEM leukemia; HCC-2998 colon; SF-295 CNS; M14 melanoma; SK-OV-3 ovarian; MALME-3M melanoma; K-562 leukemia; MOLT-4 leukemia; SK-MEL-5 melanoma; OVCAR-5 ovarian; OVCAR-4 ovarian; NCI-H226 lung; DU-145 prostate; MCF7 breast.
What all share (assay): NCI anticancer screen, dose series, 48 h

As for `COc1cc(-c2cc(=O)c3ccccc3[nH]2)cc(OC)c1OC`, the TGI in the assay on UO-31 renal, with OVCAR-8 ovarian, in the assay on SF-268 CNS, in the assay on RXF 393 renal, in the assay on SNB-75 CNS and in the assay on CCRF-CEM leukemia was greater than 75 µM throughout. Further, the TGI with HCC-2998 colon, in the assay with SF-295 CNS, in the assay on M14 melanoma, in the assay with SK-OV-3 ovarian, in the assay on MALME-3M melanoma and in the assay with K-562 leukemia was greater than 75 µM in each case. Also, the TGI with MOLT-4 leukemia is greater than 75 µM.

For `O=C(O)C12CC3CC(CC(F)(C3)C1)C2`, the TGI in the assay with UO-31 renal, in the assay on OVCAR-8 ovarian, in the assay with RXF 393 renal, in the assay on SNB-75 CNS, with CCRF-CEM leukemia and in the assay on HCC-2998 colon was greater than 100 µM throughout. In addition, the TGI with SK-MEL-5 melanoma, in the assay on M14 melanoma, in the assay on SK-OV-3 ovarian, in the assay with MALME-3M melanoma, in the assay on OVCAR-5 ovarian and in the assay on K-562 leukemia was greater than 100 µM in each case. The same molecule came in with a TGI with MOLT-4 leukemia greater than 100 µM.

As to `Cc1nnc(N/N=C(/C(=O)C(C#N)c2ccc(Cl)cc2)C(C#N)c2ccc(Cl)cc2)n1N` (stereo not drawn), the TGI was 34.1 µM with UO-31 renal; 41 µM with OVCAR-8 ovarian; 57.2 µM in the assay with SF-268 CNS; 31.6 µM in the assay on RXF 393 renal; 30.1 µM in the assay with SNB-75 CNS; greater than 100 µM in the assay on CCRF-CEM leukemia. The TGI in the assay with HCC-2998 colon was found to be 34.2 µM; with SK-MEL-5 melanoma, 30.9 µM; in the assay on SF-295 CNS, 30.9 µM; in the assay with M14 melanoma it was 38.7 µM; in the assay with OVCAR-4 ovarian, 32.9 µM; with NCI-H226 lung, 33.5 µM. Besides, the TGI is 33.6 µM in the assay with MALME-3M melanoma, 33.6 µM with OVCAR-5 ovarian, 45.4 µM in the assay with K-562 leukemia and greater than 100 µM with MOLT-4 leukemia.

In the case of `CCc1ccccc1NC(=O)CC1NC(=O)CS1` (stereo not drawn), the TGI in the assay with UO-31 renal, in the assay with OVCAR-8 ovarian, with SF-268 CNS, in the assay with RXF 393 renal, in the assay with SNB-75 CNS and in the assay on CCRF-CEM leukemia was greater than 100 µM throughout. Besides, the TGI in the assay on HCC-2998 colon, in the assay on SK-MEL-5 melanoma, in the assay with SF-295 CNS, in the assay with M14 melanoma, in the assay with SK-OV-3 ovarian and with OVCAR-4 ovarian was greater than 100 µM in each case. The TGI in the assay on NCI-H226 lung, with MALME-3M melanoma, with OVCAR-5 ovarian, in the assay on K-562 leukemia and with MOLT-4 leukemia was greater than 100 µM in each case.

On to `CS(=O)(=O)C1(Br)S(=O)(=O)OCCOS1(=O)=O`, for which the TGI in the assay on UO-31 renal, in the assay with OVCAR-8 ovarian, with SF-268 CNS, with RXF 393 renal, with SNB-75 CNS and in the assay with CCRF-CEM leukemia was greater than 100 µM each time. The TGI with HCC-2998 colon, in the assay on SK-MEL-5 melanoma, in the assay with SF-295 CNS, with M14 melanoma, with SK-OV-3 ovarian and in the assay on OVCAR-4 ovarian was greater than 100 µM in each case. The TGI in the assay with NCI-H226 lung, in the assay with MALME-3M melanoma, in the assay with OVCAR-5 ovarian, with K-562 leukemia and in the assay with MOLT-4 leukemia was greater than 100 µM throughout.

Consider `CN(C)CC(/C(Cc1ccccc1)=N\NC(=S)NN)c1ccccc1` (stereo not drawn), for which the TGI in the assay with UO-31 renal, in the assay with OVCAR-8 ovarian, with SF-268 CNS, with RXF 393 renal, in the assay with SNB-75 CNS and with HCC-2998 colon was greater than 100 µM throughout. Further, the TGI in the assay on SF-295 CNS, with M14 melanoma, in the assay with SK-OV-3 ovarian, in the assay on OVCAR-4 ovarian, in the assay with NCI-H226 lung and in the assay with MALME-3M melanoma was greater than 100 µM throughout. Also, the TGI in the assay with OVCAR-5 ovarian, in the assay on K-562 leukemia and in the assay on MOLT-4 leukemia was greater than 100 µM each time.

`O=C(Nc1nc2ncn(CCO)c2c(=O)[nH]1)c1ccccc1`: the TGI with UO-31 renal, with OVCAR-8 ovarian, in the assay on SF-268 CNS, in the assay on RXF 393 renal, in the assay with SNB-75 CNS and in the assay on CCRF-CEM leukemia was greater than 100 µM in each case. In addition, the TGI in the assay with SK-MEL-5 melanoma, in the assay on SF-295 CNS, in the assay on M14 melanoma, with SK-OV-3 ovarian, in the assay with OVCAR-4 ovarian and with NCI-H226 lung was greater than 100 µM each time. Further, the TGI in the assay on MALME-3M melanoma, with OVCAR-5 ovarian and with K-562 leukemia was greater than 100 µM in each case.

For the molecule `Nc1nc2c(ncn2CCCC(c2ccccc2)P(=O)(O)O)c(=O)[nH]1` (stereo not drawn), the TGI in the assay on UO-31 renal, with OVCAR-8 ovarian, in the assay on SF-268 CNS, with SNB-75 CNS, in the assay on CCRF-CEM leukemia and with HCC-2998 colon was greater than 100 µM each time. Moreover, the TGI in the assay on SK-MEL-5 melanoma, in the assay on SF-295 CNS, in the assay with M14 melanoma, in the assay with SK-OV-3 ovarian, in the assay on MALME-3M melanoma and with OVCAR-5 ovarian was greater than 100 µM each time. The TGI with K-562 leukemia and in the assay on MOLT-4 leukemia was greater than 100 µM each time.

For `Cc1ccc(S(=O)(=O)NC(=O)Nc2cc(Cl)c(S(N)(=O)=O)cc2S(N)(=O)=O)cc1`, the TGI in the assay with UO-31 renal, in the assay with OVCAR-8 ovarian, with SF-268 CNS, in the assay on RXF 393 renal, in the assay with SNB-75 CNS and in the assay on CCRF-CEM leukemia was greater than 100 µM throughout. In addition, the TGI with DU-145 prostate, in the assay on SK-MEL-5 melanoma, with SF-295 CNS, in the assay on M14 melanoma, with SK-OV-3 ovarian and in the assay on OVCAR-4 ovarian was greater than 100 µM throughout. In addition, the TGI in the assay on NCI-H226 lung, in the assay with MALME-3M melanoma, in the assay with OVCAR-5 ovarian, in the assay with K-562 leukemia, in the assay on MOLT-4 leukemia and in the assay with MCF7 breast was greater than 100 µM in each case.

These data come from PubChem BioAssay (NCI).
